Reference: paper PMC7726145, “Fine-tuning of lysine side chain modulates the activity of histone lysine methyltransferases” (Scientific Reports, 2020)
Entries after “also recorded” stand apart in the source; their conditions may differ.

Assays:
Format in all cases: biochemical
[1] = biological target: T1, SETD7 (Homo sapiens, UniProt Q8WTS6); assay: MALDI-TOF MS methylation assay with SETD7
T1 construct: SETD7 residues 1–366; His6 (N); made in house; host or cells: Escherichia coli Rosetta BL21 (DE3)pLysS
T1 sequence (Q8WTS6 1-366): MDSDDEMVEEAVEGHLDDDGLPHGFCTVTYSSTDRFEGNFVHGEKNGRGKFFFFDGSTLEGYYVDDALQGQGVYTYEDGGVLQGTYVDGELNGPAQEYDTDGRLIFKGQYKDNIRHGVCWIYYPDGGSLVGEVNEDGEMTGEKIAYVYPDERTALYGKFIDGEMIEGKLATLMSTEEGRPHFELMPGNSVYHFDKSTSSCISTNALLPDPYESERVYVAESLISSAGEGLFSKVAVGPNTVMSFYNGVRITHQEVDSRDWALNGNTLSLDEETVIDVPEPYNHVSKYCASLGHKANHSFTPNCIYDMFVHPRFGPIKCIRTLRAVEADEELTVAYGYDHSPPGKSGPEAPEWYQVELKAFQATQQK
Procedure: Histone peptides bearing the lysine analogues KO and KN were examined as substrates for the recombinantly expressed human KMTs using MALDI-TOF MS assays as a direct method to monitor histone methylation. We tested whether KO and KN can be methylated by di- and trimethyltransferases GLP and G9a, and monomethyltransferases SETD7 and SETD8. Samples containing the human KMT enzyme (2 µM), histone peptide (100 µM), and SAM (500 µM with GLP and G9a; 200 µM with SETD8 and SETD7) in Tris buffer (50 mM, pH 8.0) were incubated for 1 h at 37 °C. Following established enzymatic conditions[17]–[19],[21],[22], all lysine-containing histone peptides were efficiently methylated by the four KMTs (Fig. 5a,d,g,j, respectively). […] In the G9a assay, traces (< 5%) of the dimethylated species H3KO9me2 were also observed. […] We further analyzed the product distribution of these two peptide substrates with G9a and GLP throughout the time course of methylation.
Red spectra show 1 h reactions at 37 °C including KMTs (2 µM), histone peptide (100 µM) and SAM (500 µM for GLP/G9a and 200 µM for SETD8/SED7) and black spectra the no-enzyme controls.
The lack of methylation of these two analogues with SETD7 indicated a selectivity between KMTs.
(§1) Human KMTs enzymes were expressed and purified as previously described[36]–[38]. The methyltransferase plasmid (SETD8 residues 186–352, SETD7 residues 1–366, GLP residues 951–1235, G9a residues 913–1193) transformed into Escherichia coli Rosetta BL21 (DE3)pLysS cells. Cultures were grown at 37 °C in LB media containing kanamycin and chloramphenicol. Cells were grown to an OD600 of 0.5–0.6 (approximately 2.5–3 h), at which point they induced by isopropyl β-D-1-thiogalactopyranoside (IPTG) and they were transferred to a temperature of 16 °C overnight. After letting the cells grow at this temperature, they were then harvested and lysed by sonication. The lysate was centrifuged at high-speed to remove unbroken cells. The supernatant was then centrifuged to further clean the lysate. Purification of the N-terminally his6-tagged KMTs was performed using Ni–NTA affinity chromatography column, which was prewashed with lysis buffer. Target KMT enzyme was then eluted using a linear gradient concentration of imidazole. The elute was then concentrated with centrifugal concentrators (Millipore). All KMT enzymes were further purified by gel filtration on a Superdex 75 column (GE Healthcare) on an AKTA system. Purified proteins were concentrated employing Amicon Ultra Centrifugal Filter Units (Millipore) with suitable molecular weight cutoffs. Proteins concentrations were determined using the Nanodrop DeNovix DS-11 spectrophotometer and the purity was monitored by SDS-PAGE on a 4–15% gradient polyacrylamide gel (Bio-Rad).
Histone methyltransferase assay was carried out as described in 30 µL final total volume[17]–[19],[21],[22]. In brief, purified KMTs enzymes (2 µM of each enzyme per each reaction) were incubated with 100 µM of purified histone peptides in the methyltransferase assay buffer Tris–HCl (pH 8.0) and methyl donor SAM (500 µM with GLP and G9a; 200 µM with SETD8 and SETD7) for 1 h at 37 °C. 3 µL of reaction mixture was quenched with an equal amount of MeOH (1:1 ratio). Then, 3 µL of this mixture was added to an equal amount volume of a standard α-cyano-4-hydroxycinnamic acid matrix solution for spotting on a MALDI plate (Stainless ground steel 96/12 Bruker-Daltonik, Bremen-Germany). The mass spectra of peptides were analyzed by MALDI-TOF MS. […]

[2] = biological target: T1, SETD7; assay: Inhibition of SETD7-catalyzed methylation of 14-mer H3K4; conditions: for IC50: SETD7 200 nM, 14-mer H3K4 10 µM, inhibitor 1-200 µM, 4 repeats (dose-response of H3KO4)
Procedure: Residual activity assays monitoring the KMT-catalyzed methylation of the histone peptides were then carried out, aimed at providing competitive data of these two substrates as compared to the 14-mer H3K9 peptide for the active site of G9a/GLP, and to determine whether the two lysine analogues inhibit G9a- and GLP-catalyzed methylation of H3K9.
as §1
Supplementary Figure 19. […] Error bars represent the standard deviation from 4 repeats.

[3] = biological target: T2, GLP (Homo sapiens, UniProt Q9H9B1); assay: MALDI-TOF MS methylation assay with GLP; conditions: GLP 2 µM, peptide 100 µM, SAM 500 µM, Tris 50 mM, pH 8.0, 1 h at 37 °C
T2 construct: GLP residues 951–1235; His6 (N); made in house; host or cells: Escherichia coli Rosetta BL21 (DE3)pLysS
T2 sequence (Q9H9B1 982-1266): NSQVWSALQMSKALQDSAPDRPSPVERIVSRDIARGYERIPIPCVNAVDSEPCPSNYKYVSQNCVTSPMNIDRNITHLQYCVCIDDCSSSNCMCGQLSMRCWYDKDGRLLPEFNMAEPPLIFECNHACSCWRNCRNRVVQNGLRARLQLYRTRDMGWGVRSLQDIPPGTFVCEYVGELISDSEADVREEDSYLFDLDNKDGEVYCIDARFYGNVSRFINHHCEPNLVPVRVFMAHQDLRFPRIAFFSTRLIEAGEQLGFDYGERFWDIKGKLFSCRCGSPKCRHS
Procedure: as §1, with “system.” for “system. Purified proteins were concentrated employing Amicon Ultra Centrifugal Filter Units (Millipore) with suitable molecular weight cutoffs. Proteins concentrations were determined using the Nanodrop DeNovix DS-11 spectrophotometer and the purity was monitored by SDS-PAGE on a 4–15% gradient polyacrylamide gel (Bio-Rad).”

[4] = biological target: T3, G9a (Homo sapiens, UniProt Q96KQ7); assay: MALDI-TOF MS methylation assay with G9a; conditions: G9a 2 µM, peptide 100 µM, SAM 500 µM, Tris 50 mM, pH 8.0, 1 h at 37 °C
T3 construct: G9a residues 913–1193; His6 (N); made in house; host or cells: Escherichia coli Rosetta BL21 (DE3)pLysS
T3 sequence (Q96KQ7 913-1193): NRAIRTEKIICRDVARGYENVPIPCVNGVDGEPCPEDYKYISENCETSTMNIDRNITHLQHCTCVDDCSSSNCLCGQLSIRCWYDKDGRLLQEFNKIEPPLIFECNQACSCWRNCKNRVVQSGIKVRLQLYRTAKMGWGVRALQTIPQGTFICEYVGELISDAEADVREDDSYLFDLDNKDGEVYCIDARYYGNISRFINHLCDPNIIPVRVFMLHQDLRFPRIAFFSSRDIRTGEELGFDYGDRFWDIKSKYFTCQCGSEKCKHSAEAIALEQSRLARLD
Procedure: as §1, with “system.” for “system. Purified proteins were concentrated employing Amicon Ultra Centrifugal Filter Units (Millipore) with suitable molecular weight cutoffs. Proteins concentrations were determined using the Nanodrop DeNovix DS-11 spectrophotometer and the purity was monitored by SDS-PAGE on a 4–15% gradient polyacrylamide gel (Bio-Rad).”

[5] = biological target: T2, GLP; assay: Residual activity / inhibition of GLP-catalyzed methylation of H3K9; conditions: GLP 100 nM; 14-mer H3K9 5 µM; analogue 100 µM
Procedure: as §1, with “system.” for “system. Purified proteins were concentrated employing Amicon Ultra Centrifugal Filter Units (Millipore) with suitable molecular weight cutoffs. Proteins concentrations were determined using the Nanodrop DeNovix DS-11 spectrophotometer and the purity was monitored by SDS-PAGE on a 4–15% gradient polyacrylamide gel (Bio-Rad).”

[6] = biological target: T3, G9a; assay: Residual activity / inhibition of G9a-catalyzed methylation of H3K9; conditions: G9a 100 nM; 14-mer H3K9 5 µM; analogue 100 µM
Procedure: as §1, with “system.” for “system. Purified proteins were concentrated employing Amicon Ultra Centrifugal Filter Units (Millipore) with suitable molecular weight cutoffs. Proteins concentrations were determined using the Nanodrop DeNovix DS-11 spectrophotometer and the purity was monitored by SDS-PAGE on a 4–15% gradient polyacrylamide gel (Bio-Rad).”

[7] = biological target: T2, GLP; assay: NMR analysis of GLP-catalyzed methylation; conditions: GLP 8 µM; peptide 400 µM; SAM 2 mM; Tris-d11 buffer pD 8.0; 1 h at 37 °C; 1H NMR and 1H-13C HSQC
Procedure: as §1, with “system.” for “system. Purified proteins were concentrated employing Amicon Ultra Centrifugal Filter Units (Millipore) with suitable molecular weight cutoffs. Proteins concentrations were determined using the Nanodrop DeNovix DS-11 spectrophotometer and the purity was monitored by SDS-PAGE on a 4–15% gradient polyacrylamide gel (Bio-Rad).”

[8] = biological target: T4, SETD8 (Homo sapiens, UniProt Q9NQR1); assay: SETD8 kinetics by MALDI-TOF MS enzymatic assay
T4 construct: SETD8 residues 186–352; His6 (N); made in house; host or cells: Escherichia coli Rosetta BL21 (DE3)pLysS
T4 sequence (Q9NQR1 186-352 isoform Q9NQR1-2): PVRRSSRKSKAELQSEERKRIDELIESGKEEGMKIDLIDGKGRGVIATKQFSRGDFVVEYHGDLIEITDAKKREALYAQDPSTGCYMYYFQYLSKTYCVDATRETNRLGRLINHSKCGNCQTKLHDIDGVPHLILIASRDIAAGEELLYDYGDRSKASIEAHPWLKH
Procedure: To determine the substrate specificity of SETD8 towards the two histone peptides bearing the unnatural lysine analogues KO and KN, a kinetic investigation was carried out employing a MALDI-TOF MS enzymatic assay[17],[18],[21]. KMT-catalyzed methylation of the oxalysine- and azalysine-containing histone peptides was characterized by slower substrate conversion rates (kcat) compared to their respective natural sequences, a result that we attribute to their poorer nucleophilic character due to the electron-withdrawing properties of the O and NH moieties. Furthermore, a highly hydrophobic channel of the methyltransferases is poorly tailored for significant electrostatic changes in the hydrophobic nature of the lysine side chain, likely leading to a larger penalty for desolvation of γ-azalysine and γ-oxalysine. Combined with the altered Km values for H4KO20 and H4KN20, this translated into a generally slightly worse catalytic efficiency for these two lysine analogues.
as §1
Kinetics studies were performed as described[17],[18],[21]. A solution of histone peptide (0–300 μM), was added to a solution of SAM (116 μM) in assay buffer (50 mM Tris, pH 8.0) at room temperature (final volume of 100 μL). […]

[9] = SETD7 2 µM, peptide 100 µM, SAM 200 µM, Tris 50 mM, pH 8.0, 1 h at 37 °C
[10] = SETD8 2 µM, peptide 0–300 μM, SAM 116 μM, 50 mM Tris, pH 8.0, room temperature, 10 min, MALDI-TOF MS, value ± SD, replicates

## C[C@H](N)C(=O)N[C@@H](CCCNC(=N)N)C(=O)N[C@H](C(=O)N[C@@H](CNCCN)C(=O)N[C@@H](CCC(N)=O)C(=O)N[C@H](C(=O)N[C@@H](C)C(=O)N[C@@H](CCCNC(=N)N)C(=O)N[C@@H](CCCCN)C(=O)N[C@@H](CO)C(=O)N[C@H](C(=O)NCC(=O)NCC(=O)N[C@@H](CCCCN)C(=O)N[C@@H](C)C(N)=O)[C@@H](C)O)[C@@H](C)O)[C@@H](C)O [H3KN4]
[1]; [9]
  methylation with SETD7: very low levels of methylation were detected; also recorded: significantly reduced
  monomethylated species (traces) with SETD7: < 5%
[1]; SETD7 10 µM, SAM 1 mM, 37 °C, 1 h
  methylation with SETD7 at high concentration, 1 h: poorly catalyzed traces
[1]; SETD7 10 µM, SAM 1 mM, 37 °C, 3 h
  methylation with SETD7 at high concentration, 3 h: poorly catalyzed traces; also recorded: only traces of H3KO4me and H3KN4me observed
[2]; 14-mer H3K4 substrate
  inhibition of SETD7 in words: inactive
[2]
  IC50: > 100 µM

## C[C@H](N)C(=O)N[C@@H](CCCNC(=N)N)C(=O)N[C@H](C(=O)N[C@@H](COCCN)C(=O)N[C@@H](CCC(N)=O)C(=O)N[C@H](C(=O)N[C@@H](C)C(=O)N[C@@H](CCCNC(=N)N)C(=O)N[C@@H](CCCCN)C(=O)N[C@@H](CO)C(=O)N[C@H](C(=O)NCC(=O)NCC(=O)N[C@@H](CCCCN)C(=O)N[C@@H](C)C(N)=O)[C@@H](C)O)[C@@H](C)O)[C@@H](C)O [H3KO4]
[1]; [9]
  monomethylated species (traces) with SETD7: < 5%
[2]
  IC50: 38.9 µM

## ARTKQTARK^9STGGKA [H3K9, native histone peptide, N-terminal 15-residues of H3]
[3]
  methylation products with GLP: complete trimethylation
[4]
  methylation products with G9a: complete trimethylation
[5]
  inhibition of GLP in words: outcompetes H3KO9 and H3KN9 peptides for binding in the active site of G9a/GLP
[6]
  inhibition of G9a in words: outcompetes H3KO9 and H3KN9 peptides for binding in the active site of G9a/GLP
[7]
  methylation observed by NMR: resulted in a signal of H3K9me3

## GGAKRHRK^20VLRDNIQ [H4K20, native peptide fragment 13–27 of H4]
[8]; SETD8 2 µM, peptide 0–300 μM, SAM 116 μM, 50 mM Tris, pH 8.0, room temperature, 10 min, MALDI-TOF MS
  kcat/Km: 86.8 M⁻¹ s⁻¹
[8]; [10]
  Km: 104 ± 25.3 µM
  kcat: 0.009 ± 0.00183 s⁻¹
[8]; comparison of kinetics data including H4KC20 of ref 18
  order in which SETD8 tolerates modifications at the γ position (kinetics): H4K20 > H4KC20 > H4KN20 > H4KO20
